The record followed here is ChEMBL document CHEMBL4831488, “Design, synthesis, docking, molecular dynamics and bioevaluation studies on novel N-methylpicolinamide and thienopyrimidine derivatives with inhibiting NF-κB and TAK1 activities: Cheminformatics tools RDKit applied in drug design” (Eur J Med Chem, 2021).

In one test the test system is MDA-MB-231. Put plainly: Cytotoxicity against human MDA-MB-231 cells assessed as inhibition of cell growth at 20 uM measured after 72 hrs by MTT assay relative to control. Type of test: functional. In general terms: Tetrazolium dyes change colour on reduction, which living cells bring about.
Test [1] deals with HCT-116. As to the kind of experiment: Cytotoxicity against human HCT-116 cells assessed as inhibition of cell growth at 20 uM measured after 72 hrs by MTT assay relative to control. Type of test: functional.
The test system of test [2] is A549. Put plainly: Cytotoxicity against human A549 cells assessed as inhibition of cell growth at 20 uM measured after 72 hrs by MTT assay relative to control. In kind it is functional.
In test [3] the test system is A549. Put plainly: Cytotoxicity against human A549 cells assessed as inhibition of cell growth measured after 72 hrs by MTT assay. Type of test: functional, cell-based.
Another test addresses TAK1-TAB1 fusion protein (Homo sapiens, UniProt O43318). Put plainly: Inhibition of Tak1/Tab1 (unknown origin) assessed as inhibition of Tak1 kinase activity preincubated for 30 mins followed by addition of MBP protein and ATP and measured after 2 hrs by ADP-Glo kinase assay.
Test [4] deals with HCT-116. As to the kind of experiment: Cytotoxicity against human HCT-116 cells assessed as inhibition of cell growth measured after 72 hrs by MTT assay. In kind it is functional, cell-based. The settings on record: HCT-116, 72 h.
In another test the test system is MAP3K7/TAB1 [+]. As to the kind of experiment: Inhibition of Tak1/Tab1 (unknown origin) assessed as inhibition of Tak1 kinase activity preincubated for 30 mins followed by addition of MBP protein and ATP and measured after 2 hrs by ADP-Glo kinase assay. For orientation: In ADP-Glo the light output rises with the ADP produced.
Setting [5] is: Homo sapiens, A549, 72 h, read-out: IC50.

TAK1-TAB1 fusion protein, sequence (O43318 whole entry, looked up, the tested form may be a part): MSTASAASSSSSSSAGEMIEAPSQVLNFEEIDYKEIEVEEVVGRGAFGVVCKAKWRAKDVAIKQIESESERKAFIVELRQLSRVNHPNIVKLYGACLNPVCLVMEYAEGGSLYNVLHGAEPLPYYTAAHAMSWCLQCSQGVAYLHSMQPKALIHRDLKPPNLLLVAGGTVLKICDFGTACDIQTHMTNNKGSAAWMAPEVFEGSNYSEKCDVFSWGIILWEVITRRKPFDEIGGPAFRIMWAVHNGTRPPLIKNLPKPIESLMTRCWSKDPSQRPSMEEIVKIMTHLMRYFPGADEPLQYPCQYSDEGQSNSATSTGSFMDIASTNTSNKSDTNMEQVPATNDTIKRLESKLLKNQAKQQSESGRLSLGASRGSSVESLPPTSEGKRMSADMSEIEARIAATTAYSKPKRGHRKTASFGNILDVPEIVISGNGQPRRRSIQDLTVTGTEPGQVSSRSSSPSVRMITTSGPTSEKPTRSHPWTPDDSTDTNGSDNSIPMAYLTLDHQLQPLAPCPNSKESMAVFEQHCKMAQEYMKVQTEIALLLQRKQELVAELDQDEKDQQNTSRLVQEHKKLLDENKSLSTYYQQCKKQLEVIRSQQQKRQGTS

The term inhibition denotes the change of the read-out against control, counted positive when it falls. As usually defined, the IC50 is the concentration at which inhibition is half-maximal. Regarding `c1ccc2c(c1)CCN2c1ccnc(Nc2ccc(Oc3ncnc4sccc34)cc2)n1`, the inhibition at 20 µM in the test on MDA-MB-231 is 9.95%; in the test with HCT-116 [1] it was -0.62%; in the test with A549 [2], 2.81%. Further, in the test with A549 [3] (a549), the IC50 result was “Not Active”.

Regarding `c1ccc2c(c1)CCN(c1ccnc(Nc3ccc(Oc4ncnc5ccsc45)cc3)n1)C2`, the inhibition at 20 µM was 15.4% in the test on MDA-MB-231, 40.9% with HCT-116 [1] and 54.9% with A549 [2]. The IC50 in the test on A549 [3] (setting [5]) is 17 µM.

As to `c1cc(N2CCCCC2)nc(Nc2ccc(Oc3ncnc4sccc34)cc2)n1`, the inhibition at 20 µM in the test on MDA-MB-231 was found to be 40.4%; in the test with HCT-116 [1], 66.3%; with A549 [2] it was 64.8%. Moreover, the values for the IC50 in the test on A549 [3] (setting [5]) and at TAK1-TAB1 fusion protein were 4.02 µM and 2.52 µM, respectively.

Regarding `CN(c1ccc(Oc2ncnc3sccc23)cc1)c1nccc(N2CCCC2)n1`, the inhibition at 20 µM in the test with MDA-MB-231 turned out to be 31%; in the test on HCT-116 [1], 42.2%; in the test with A549 [2], 55.5%. In addition, the IC50 in the test on A549 [3] (setting [5]) came to 15.1 µM.

Consider `CN(c1ccc(Oc2ncnc3ccsc23)cc1)c1nccc(N2CCc3ccccc3C2)n1`, for which the inhibition at 20 µM with MDA-MB-231 worked out at 30.2%; in the test with HCT-116 [1] it was 58.3%; in the test with A549 [2], 69.9%. Also, in the test with A549 [3] (setting [5]), the IC50 stood at 16.1 µM.

In the case of `c1ccc2c(c1)CCN(c1ccnc(Nc3ccc(Oc4ncnc5sccc45)cc3)n1)C2`, the inhibition at 20 µM in the test on MDA-MB-231 was 26.8%; in the test with HCT-116 [1] it was 18.1%; in the test with A549 [2], 34%. The figures for the IC50 with A549 [3] (setting [5]) and at TAK1-TAB1 fusion protein were 6.75 µM and 6.87 µM, respectively.

With `CN(c1ccc(Oc2ncnc3ccsc23)cc1)c1nccc(N2CCc3ccccc32)n1`, the inhibition at 20 µM in the test with MDA-MB-231 was found to be 38.2%; in the test with HCT-116 [1] it was 57.8%; in the test with A549 [2] it was 58.2%. Also, in the test on A549 [3] (setting [5]), the IC50 was 20.5 µM.

`CNC(=O)c1cc(Oc2ccc(Nc3nccc(N4CCCC4)n3)cc2)ccn1`: the IC50 came to 1.41 µM with HCT-116 [4], 3.41 µM with A549 [3] (setting [5]) and 1.36 µM on TAK1-TAB1 fusion protein. Further, the values for the inhibition at 20 µM in the test with MDA-MB-231, in the test with HCT-116 [1] and in the test on A549 [2] were 46.6%, 66.4% and 59.6%, respectively.

With `CNC(=O)c1cc(Oc2ccc(Nc3nccc(N4CCOCC4)n3)cc2)ccn1`, the results for the IC50 in the test on HCT-116 [4] and with A549 [3] (setting [5]) were 12.8 µM and 7.34 µM, respectively. Also, the values for the inhibition at 20 µM in the test on MDA-MB-231, in the test with HCT-116 [1] and in the test with A549 [2] were 34.1%, 48.3% and 66.3%, respectively.

On to `CNC(=O)c1cc(Oc2ccc(Nc3nccc(N4CCc5ccccc5C4)n3)cc2)ccn1`, for which the values for the IC50 with HCT-116 [4], in the test with A549 [3] (setting [5]) and on TAK1-TAB1 fusion protein were 15.8 µM, 3.19 µM and 1.26 µM, respectively. The inhibition at 20 µM in the test on MDA-MB-231 amounted to 41.2%; in the test on HCT-116 [1] it was 31.2%; with A549 [2] it was 59.6%.

Consider `c1cc(N2CCOCC2)nc(Nc2ccc(Oc3ncnc4sccc34)cc2)n1`, for which the figures for the inhibition at 20 µM with MDA-MB-231, with HCT-116 [1] and in the test with A549 [2] were 14.5%, 37.5% and 36.7%, respectively. Besides, in the test on A549 [3] (setting [5]), the IC50 came to 9.31 µM.

`c1cc(N2CCCC2)nc(Nc2ccc(Oc3ncnc4ccsc34)cc2)n1`: the inhibition at 20 µM in the test with MDA-MB-231 turned out to be 14.3%; with HCT-116 [1] it was 22.2%; in the test on A549 [2], 23.2%. Moreover, the IC50 entry with A549 [3] (a549) is given as “Not Active”.

With `CN(c1ccc(Oc2ncnc3sccc23)cc1)c1nccc(N2CCc3ccccc32)n1`, the inhibition at 20 µM in the test with MDA-MB-231 came to 17.6%; in the test with HCT-116 [1], 20%; with A549 [2], 29.4%. Besides, the IC50 in the test with A549 [3] (setting [5]) turned out to be 19.6 µM.

As for `CN(C)c1ccc(C(=O)Nc2ccc(Oc3ncnc4ccsc34)cc2)cc1`, the inhibition at 20 µM came out at 10.4% with MDA-MB-231, 53.9% in the test with HCT-116 [1] and 50.8% with A549 [2]. The half-inhibitory concentration (IC50) with A549 [3] (setting [5]) turned out to be 20.2 µM.

Turning to `CN(c1ccc(Oc2ncnc3ccsc23)cc1)c1nccc(N2CCCC2)n1`, the values for the inhibition at 20 µM in the test with MDA-MB-231, with HCT-116 [1] and with A549 [2] were 38%, 63.5% and 63.9%, respectively. In addition, the figures for the IC50 in the test on A549 [3] (setting [5]) and in the test with MAP3K7/TAB1 [+] were 6.51 µM and “Not Active”, respectively.

Turning to `c1cc(N2CCCC2)nc(Nc2ccc(Oc3ncnc4sccc34)cc2)n1`, the inhibition at 20 µM in the test with MDA-MB-231 worked out at 24.7%; in the test with HCT-116 [1] it was 54.4%; in the test on A549 [2], 61%. In addition, in the test on A549 [3] (setting [5]), the IC50 worked out at 8.1 µM.

As for `CN(c1ccc(Oc2ncnc3ccsc23)cc1)c1nccc(N2CCCCC2)n1`, the inhibition at 20 µM in the test on MDA-MB-231 amounted to 49.7%; in the test with HCT-116 [1], 66.2%; in the test with A549 [2], 65.7%. Besides, the IC50 in the test with A549 [3] (setting [5]) amounted to 8.24 µM.

In the case of `CN(c1ccc(Oc2ncnc3sccc23)cc1)c1nccc(N2CCc3ccccc3C2)n1`, the inhibition at 20 µM in the test on MDA-MB-231 amounted to 24.3%; with HCT-116 [1] it was 57.7%; in the test with A549 [2] it was 68.4%. Further, the values for the IC50 with A549 [3] (setting [5]) and on TAK1-TAB1 fusion protein were 6.39 µM and 12 µM, respectively.

As for `c1ccc(CNc2ccc(Oc3ncnc4ccsc34)cc2)cc1`, the values for the inhibition at 20 µM in the test with MDA-MB-231, with HCT-116 [1] and in the test with A549 [2] were 3.72%, -12.2% and 30.6%, respectively. The IC50 result in the test with A549 [3] (a549) was “Not Active”.

For the compound `CN(c1ccc(Oc2ncnc3sccc23)cc1)c1nccc(N2CCCCC2)n1`, the inhibition at 20 µM came out at 29.3% in the test with MDA-MB-231, 52.1% in the test with HCT-116 [1] and 51.9% in the test on A549 [2]. Also, the IC50 in the test on A549 [3] (setting [5]) is 8.79 µM.

Regarding `c1cc(N2CCCCC2)nc(Nc2ccc(Oc3ncnc4ccsc34)cc2)n1`, the inhibition at 20 µM in the test on MDA-MB-231 was 45.7%; in the test on HCT-116 [1], 61.5%; in the test with A549 [2], 59.9%. Moreover, the IC50 in the test on A549 [3] (setting [5]) came out at 7.8 µM.

As for `CCN(CC)c1ccc(C(=O)Nc2ccc(Oc3ncnc4ccsc34)cc2)cc1`, the inhibition at 20 µM with MDA-MB-231 is 38.3%; in the test with HCT-116 [1], 37.9%; in the test with A549 [2], 63.8%. The IC50 in the test with A549 [3] (setting [5]) was determined as 8.03 µM.

Take `c1cc(N2CCOCC2)nc(Nc2ccc(Oc3ncnc4ccsc34)cc2)n1`: the inhibition at 20 µM in the test on MDA-MB-231 is 23%; with HCT-116 [1] it was 53.1%; in the test on A549 [2] it was 57.9%. The IC50 stood at 6.86 µM in the test on A549 [3] (setting [5]) and 15.7 µM on TAK1-TAB1 fusion protein.
